Experimental data reported in patent US9157104B2, “Method to improve phosphate solubilization in plants” (Consiglio Nazionale delle Ricerche, priority 2009, dated 2015).

How the values were obtained:
[1] = system: pho operon genes in S. meliloti cells; test: Quantitative RT-PCR analysis of pho operon genes; assay type: cell-based; conditions: for phoB regulatory gene expression (qRT-PCR): P-sufficient (13 mM K-phosphate), vs untreated 1021 cells
Method: FIG. S1. Quantitative RT-PCR analysis of pho operon genes in S. meliloti cells under P-sufficient conditions (13 mM K-phosphate). The relative expression level was >1 for genes more highly expressed in RD64 and in 1021 cells treated for 3 hours with 0.5 mM IAA, Ind, Trp, ICA and 2,4-D. The relative expression level was <1 for genes more highly expressed in 1021 cells (control). Error bars represent the standard deviation from three independent biological experiments.
FIG. 1. Quantitative RT-PCR analysis of pho operon genes expression in S. meliloti cells under P-starving conditions. The relative expression level was >1 for genes more highly expressed in RD64 and in 1021 cells treated for 3 hours with 0.5 mM IAA, Ind, Trp, ICA and 2,4-D. The relative expression level was <1 for genes more highly expressed in 1021 cells (control). Error bars represent the standard deviation from five independent biological experiments (p<0.05).
Total RNA from P-sufficient and P-starved cells was isolated as previously described (5). cDNA were synthesized with the StrataScript™ reverse transcription reagents (Stratagene) and random hexamers as primers. Quantitative PCR was performed with the Power SYBR PCR Master Mix (Applied Biosystems). Reactions were run on the iCycler iQ (Bio-Rad). The thermo cycling condition were: 15 min at 95° C., 40 cycles of denaturation at 95° C. for 20 s, annealing (20 s) and extension (35 s) at 72° C. Specific primer pairs, designed using the Primer3 software, are shown.
smc02641 and smc00128 were used as housekeeping genes for data normalization in the comparative Ct method as previously described (8). Phosphatase Activity

S. meliloti 1021 = test: Microarray gene expression of 1021 cells treated with 0.5 mM compound; conditions: P-sufficient (13 mM); for pho genes among those significantly affected (microarray): 1021 + 0.5 mM compound vs untreated 1021;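 as to all read-outs here: cells were harvested 3 h after the start of each treatment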
Method: For P starvation experiments, cells of 1021 wild-type and RD64 strains were grown at 30° C. to mid exponential phase (OD600=0.6) in RMM broth containing 1% (w/v) mannitol as carbon source and 13 mM P, washed with RMM containing 0 P, resuspended in the same medium and then divided into three cultures. No P (−P), 1.0 mM P (P-starved cells) or 13 mM P (+P cells also named P-sufficient cells) was added into the three cultures, respectively. The P-starved and P-sufficient 1021 wild type cells were treated for 3.0 hours with 0.5 mM IAA. […] To rule out that this bacteria could be partially starved for Trp, RD64 cells were also treated with 0.5 mM Trp and used for microarrays and RT-PCR analyses. […] After 3 hours of each treatment, cell batches were collected, freezed and stored at −80° C. for use in experiments.

acid phosphatase = test: Acid phosphatase activity under P-starved conditions; assay type: cell-based, S. meliloti; conditions: phosphate starvation; vs 1021 cells; compounds 0.5 mM, 3 hours at 30° C.
alkaline phosphatase = conditions: phosphate starvation; vs 1021 cells; compounds 0.5 mM, 3 hours at 30° C.
Method: Acid (A) and alkaline (B) phosphatase activity in S. meliloti cells under P-starved conditions. Log-phase cells grown in a MOPS-buffered minimal medium (starting P concentration=13 mM) were washed and then resuspended in the same medium containing no added P (1021 and RD64 strains) and 0.5 mM IAA, Trp or Ind (1021 strain). Treatments were performed for 3 hours at 30° C.
Alkaline and acid phophatase enzymes under P-limiting conditions were assayed as previously reported (16). Units are reported as nanomoles per minute per milligram of protein. Protein concentrations were determined by the Bradford's assay.

[2] = 1021 + 0.5 mM Tryptophan vs untreated 1021

O=C(O)COc1ccc(Cl)cc1Cl [2,4-D, 2,4-dichlorophenoxyacetic acid]
phoB regulatory gene expression (qRT-PCR) ([1]; compounds 0.5 mM, 3 hours): unaffected
pho genes among those significantly affected (microarray) (S. meliloti 1021): did not find any pho genes
M (log2 ratio of intensities) SMa1077 nex18 (S. meliloti 1021; 1021 + 2,4-D vs untreated 1021): 2.581
M (log2 ratio of intensities) SMa1128 degP4 (S. meliloti 1021; 1021 + 2,4-D vs untreated 1021): 1.552
M (log2 ratio of intensities) SMb21221 smb21221 (S. meliloti 1021; 1021 + 2,4-D vs untreated 1021): 1.027
M (log2 ratio of intensities) SMc00151 gph1 (S. meliloti 1021; 1021 + 2,4-D vs untreated 1021): −0.8713
M (log2 ratio of intensities) SMc00335 rpsA (S. meliloti 1021; 1021 + 2,4-D vs untreated 1021): −0.7145
M (log2 ratio of intensities) SMc00363 rpm1 (S. meliloti 1021; 1021 + 2,4-D vs untreated 1021): −0.8021
M (log2 ratio of intensities) SMc00591 smc00591 (S. meliloti 1021; 1021 + 2,4-D vs untreated 1021): 0.8629
M (log2 ratio of intensities) SMc00869 atpF2 (S. meliloti 1021; 1021 + 2,4-D vs untreated 1021): −1.318
M (log2 ratio of intensities) SMc00912 groES1 (S. meliloti 1021; 1021 + 2,4-D vs untreated 1021): −1.272
M (log2 ratio of intensities) SMc01214 smc01214 (S. meliloti 1021; 1021 + 2,4-D vs untreated 1021): −1.039
M (log2 ratio of intensities) SMc01291 rpmD (S. meliloti 1021; 1021 + 2,4-D vs untreated 1021): −0.9964
M (log2 ratio of intensities) SMc01298 rplX (S. meliloti 1021; 1021 + 2,4-D vs untreated 1021): −1.26
M (log2 ratio of intensities) SMc01299 rplN (S. meliloti 1021; 1021 + 2,4-D vs untreated 1021): −1.587
M (log2 ratio of intensities) SMc01300 rpsQ (S. meliloti 1021; 1021 + 2,4-D vs untreated 1021): −0.9524
M (log2 ratio of intensities) SMc01301 rpmC (S. meliloti 1021; 1021 + 2,4-D vs untreated 1021): −2.007
M (log2 ratio of intensities) SMc01319 rplJ (S. meliloti 1021; 1021 + 2,4-D vs untreated 1021): −1.788
M (log2 ratio of intensities) SMc01326 tufB (S. meliloti 1021; 1021 + 2,4-D vs untreated 1021): −1.664
M (log2 ratio of intensities) SMc01858 smc01858 (S. meliloti 1021; 1021 + 2,4-D vs untreated 1021): −1.083
M (log2 ratio of intensities) SMc01883 smc01883 (S. meliloti 1021; 1021 + 2,4-D vs untreated 1021): −0.8788
M (log2 ratio of intensities) SMc02340 smc02340 (S. meliloti 1021; 1021 + 2,4-D vs untreated 1021): −1.408
M (log2 ratio of intensities) SMc02498 atpH (S. meliloti 1021; 1021 + 2,4-D vs untreated 1021): −1.251
M (log2 ratio of intensities) SMc02692 rplY (S. meliloti 1021; 1021 + 2,4-D vs untreated 1021): −0.8486
M (log2 ratio of intensities) SMc02717 leuA1 (S. meliloti 1021; 1021 + 2,4-D vs untreated 1021): −0.8087
M (log2 ratio of intensities) SMc02905 dnaX (S. meliloti 1021; 1021 + 2,4-D vs untreated 1021): −0.7264
M (log2 ratio of intensities) SMc03805 tesB (S. meliloti 1021; 1021 + 2,4-D vs untreated 1021): 0.9991
M (log2 ratio of intensities) SMc03859 rpsP (S. meliloti 1021; 1021 + 2,4-D vs untreated 1021): −0.7104
M (log2 ratio of intensities) SMc03979 gap (S. meliloti 1021; 1021 + 2,4-D vs untreated 1021): −1.065
M (log2 ratio of intensities) SMc04003 rpmJ (S. meliloti 1021; 1021 + 2,4-D vs untreated 1021): −1.331

N[C@@H](Cc1c[nH]c2ccccc12)C(=O)O [Tryptophan, tryptophan]
acid phosphatase activity (acid phosphatase): unaffected, or only slightly increased
alkaline phosphatase activity (alkaline phosphatase): unaffected, or only slightly increased
expression of pho genes in RD64 cells after addition of compound ([1]; 0.5 mM added to RD64 cells, vs untreated RD64 cells, data not shown): unaffected or slightly reduced
expression level of all five pho genes (RT-PCR) ([1]; P-starved conditions, vs control 1021, compounds 0.5 mM, 3 hours): only slightly induced or unchanged
phoB regulatory gene expression (qRT-PCR) ([1]; compounds 0.5 mM, 3 hours): unaffected
M (log2 ratio of intensities) SMa0707 sma0707 (S. meliloti 1021; [2]): 0.9084
M (log2 ratio of intensities) SMa0711 sma0711 (S. meliloti 1021; [2]): 0.8863
M (log2 ratio of intensities) SMa1007 sma1007 (S. meliloti 1021; [2]): 0.9801
M (log2 ratio of intensities) SMa1073 sma1073 (S. meliloti 1021; [2]): 0.7423
M (log2 ratio of intensities) SMa1087 sma1087 (S. meliloti 1021; [2]): 0.751
M (log2 ratio of intensities) SMa1118 hspC2 (S. meliloti 1021; [2]): 0.8663
M (log2 ratio of intensities) SMa1128 degP4 (S. meliloti 1021; [2]): 1.449
M (log2 ratio of intensities) SMa1321 virB1 (S. meliloti 1021; [2]): 4.445
M (log2 ratio of intensities) SMa2145 sma2145 (S. meliloti 1021; [2]): 0.9145
M (log2 ratio of intensities) SMa2189 sma2189 (S. meliloti 1021; [2]): 0.993
M (log2 ratio of intensities) SMb20585 ggt (S. meliloti 1021; [2]): 1.09
M (log2 ratio of intensities) SMb20672 smb20672 (S. meliloti 1021; [2]): 1.815
M (log2 ratio of intensities) SMb20984 nirB 4 (S. meliloti 1021; [2]): −1.11
M (log2 ratio of intensities) SMb21566 groEL5 (S. meliloti 1021; [2]): −1.021
M (log2 ratio of intensities) SMc00155 aroF (S. meliloti 1021; [2]): −1.565
M (log2 ratio of intensities) SMc00182 smc00182 (S. meliloti 1021; [2]): −1.097
M (log2 ratio of intensities) SMc01169 ald (S. meliloti 1021; [2]): 0.7379
M (log2 ratio of intensities) SMc01293 rplR 3 (S. meliloti 1021; [2]): −0.7637
M (log2 ratio of intensities) SMc01311 tufA (S. meliloti 1021; [2]): −0.7229
M (log2 ratio of intensities) SMc01313 rpsG (S. meliloti 1021; [2]): −0.7518
M (log2 ratio of intensities) SMc01314 rpsL (S. meliloti 1021; [2]): −0.7349
M (log2 ratio of intensities) SMc01636 smc01636 (S. meliloti 1021; [2]): −0.9473
M (log2 ratio of intensities) SMc02507 sitC (S. meliloti 1021; [2]): 1.133
M (log2 ratio of intensities) SMc03253 smc03253 (S. meliloti 1021; [2]): 2.689
M (log2 ratio of intensities) SMc04140 smc04140 (S. meliloti 1021; [2]): 2.032
M (log2 ratio of intensities) SMc04141 gst9 (S. meliloti 1021; [2]): 1.581
M (log2 ratio of intensities) SMc04147 smc04147 (S. meliloti 1021; [2]): 0.8262
M (log2 ratio of intensities) SMc04434 rpmH (S. meliloti 1021; [2]): −0.7758
pho genes among those significantly affected (microarray) (S. meliloti 1021): did not find any pho genes
